The target of data set [1] is T1, human S1P3 receptor (Homo sapiens, UniProt Q99500).
T1 construct: expressed in transfected cells; membranes
Kind of data set: S1P3 GTPγS assay. It is filed as biochemical. As to conditions: [35S]-GTPγS binding, S1P3 RBL-2H3 membranes, agonist; read-out: pEC50 (S1P3 GTPγS assay) (converted). The protocol:
(§1) For membrane preparations all steps were performed at 4° C. Rat hepatoma cells stably expressing the human S1P1 receptor or Rat Basophilic Leukaemia cells (RBL) stably expressing human S1P3 receptor were grown to 80% confluency before being harvested into 10 ml Phospho-Buffered Saline (PBS) and centrifuged at 1200 rpm for 5 minutes. After removal of the supernatant, the pellet was re-suspended and cells were homogenised within a glass Waring blender for 2 bursts of 15 secs in 200 mls of buffer (50 mM HEPES, 1 mM leupeptin, 25 μg/ml bacitracin, 1 mM EDTA, 1 mM PMSF, 2 μM pepstatin A). The blender was plunged into ice for 5 mins after the first burst and 10-40 mins after the final burst to allow foam to dissipate. The material was then spun at 500 g for 20 mins and the supernatant spun for 36 mins at 48,000 g. The pellet was resuspended in the same buffer as above but without PMSF and pepstatin A. The material was then forced through a 0.6 mm needle, made up to the required volume, (usually ×4 the volume of the original cell pellet), aliquoted and stored frozen at −80° C.
S1P3 membranes from rat basophilic leukaemia cells (RBL-2H3)(1.5 μg/well) were adhered to WGA-coated SPA beads (0.125 mg/well) in assay buffer (HEPES 20 mM, MgCl2 3 mM, NaCl 100 mM and pH adjusted to 7.4 using KOH 5M), GDP 10 μM FAC and saponin 90 μg/ml FAC was also added).
After 30 minutes pre-coupling on ice the bead and membrane suspension was dispensed into a white Greiner polypropylene LV384-well plate (5 μl/well), containing 0.1 μl of the compound. 5 μl/well [^35S]-GTPγS (0.5 nM final radioligand conc) made up in assay buffer was then added to agonist plates. The final assay cocktail (10.1 μl) was centrifuged at 1000 rpm for 5 minutes then read immediately on a Viewlux reader.
(§2) All test compounds were dissolved in DMSO at a concentration of 10 mM and were prepared in 100% DMSO using a 1 in 4 dilution step to provide 11 point dose response curves. The dilutions were transferred to the assay plates ensuring that the DMSO concentration was constant across the plate for all assays.
(§3) All data was normalized to the mean of 16 high and 16 low control wells on each plate. A four parameter curve fit was then applied.
S1P3 expressing RBL membranes (1.5 μg/well) were homogenised by passing through a 23G needle. These were then adhered to WGA-coated SPA beads (0.125 mg/well) in assay buffer (HEPES 20 mM, MgCl2 10 mM, NaCl 100 mM and pH adjusted to 7.4 using KOH 5M). GDP 10 μM FAC and saponin 90 μg/ml FAC were also added
(§4) After 30 minutes precoupling on ice, the bead and membrane suspension was dispensed into white Greiner polypropylene LV 384-well plates (5 μl/well), containing 0.1 μl of compound. 5 μl/well [^35S]-GTPγS (0.5 nM for S1P1 or 0.3 nM for S1P3 final radioligand concentration) made in assay buffer was then added to the plates. The final assay cocktail (10.1 μl) was then sealed, spun on a centrifuge, then read immediately on a Viewlux instrument.
Background: GTPγS resists hydrolysis and so accumulates on activated G proteins.

The target in data set [2] is T2, human S1P1 receptor (Homo sapiens, UniProt P21453).
T2 construct: expressed in transfected cells; membranes
The data set is described as follows: S1P1 GTPγS assay. It is filed as biochemical. The conditions noted are these: [35S]-GTPγS binding, human S1P1 rat hepatoma (RH7777) membranes, agonist; read-out: pEC50 (S1P1 GTPγS assay) (converted). The protocol: as §1
as §1, with “All” for “For membrane preparations all”, “Cells” for “Rat hepatoma cells stably expressing the human S1P1 receptor or Rat Basophilic Leukaemia cells (RBL) stably expressing human S1P3 receptor were grown to 80% confluency before being harvested into 10 ml Phospho-Buffered Saline (PBS) and centrifuged at 1200 rpm for 5 minutes. After removal of the supernatant, the pellet was re-suspended and cells”
Human S1P1 rat hepatoma membranes (1.5 μg/well) were adhered to a wheatgerm agglutinin (WGA)-coated scintillation proximity assay (SPA) beads (0.125 mg/well) in assay buffer (HEPES 20 mM, MgCl2 10 mM, NaCl 100 mM and pH adjusted to 7.4 using KOH 5M, GDP 10 μM FAC (final assay concentration) and saponin 90 μg/ml FAC was also added).
After 30 minutes pre-coupling on ice the bead and membrane suspension was dispensed into a white Greiner polypropylene LV384-well plate (5 μl/well), containing 0.1 μl of the compound. 5 μl/well [^35S]-GTPγS (0.5 nM final radioligand conc) made up in assay buffer was then added to agonist plates. The final assay cocktail (10.1 μl) was then centrifuged at 1000 rpm for 5 minutes then read immediately on a Viewlux reader.
as §2, §3
S1P1 expressing RH7777 membranes (1.5 μg/well) membranes (1.5 μg/well) were homogenised by passing through a 23G needle. These were then adhered to WGA-coated SPA beads (0.125 mg/well) in assay buffer (HEPES 20 mM, MgCl2 10 mM, NaCl 100 mM and pH adjusted to 7.4 using KOH 5M). GDP 10 μM FAC and saponin 90 μg/ml FAC were also added
as §4

The test system of data set [3] is circulating lymphocytes. As to conditions: animals and man; cited from earlier work.
For data set [4] the following is noted: clinical studies, first 24 hours of treatment; cited from earlier work.

Counter-ions that a name gives are not always drawn. Where only a bound is given, the exact number is not on record here.

Data on 14 compounds can be found in patent US20100273770A1, “1, 2, 4 -OXADIAZOLE COMPOUNDS FOR THE TREATMENT OF AUTOIMMUNE DISEASES” (priority 2007, published 2010).

T1 sequence (Q99500 whole entry): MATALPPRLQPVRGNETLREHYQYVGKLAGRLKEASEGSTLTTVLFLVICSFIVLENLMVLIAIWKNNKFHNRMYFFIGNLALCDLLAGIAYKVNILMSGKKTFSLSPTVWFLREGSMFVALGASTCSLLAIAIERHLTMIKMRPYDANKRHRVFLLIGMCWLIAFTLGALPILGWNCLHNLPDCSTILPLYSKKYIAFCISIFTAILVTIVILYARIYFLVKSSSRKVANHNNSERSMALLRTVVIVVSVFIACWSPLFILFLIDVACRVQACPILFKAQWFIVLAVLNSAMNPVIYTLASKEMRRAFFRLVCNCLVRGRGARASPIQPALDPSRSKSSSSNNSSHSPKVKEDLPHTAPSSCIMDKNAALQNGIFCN
T2 sequence (P21453 whole entry): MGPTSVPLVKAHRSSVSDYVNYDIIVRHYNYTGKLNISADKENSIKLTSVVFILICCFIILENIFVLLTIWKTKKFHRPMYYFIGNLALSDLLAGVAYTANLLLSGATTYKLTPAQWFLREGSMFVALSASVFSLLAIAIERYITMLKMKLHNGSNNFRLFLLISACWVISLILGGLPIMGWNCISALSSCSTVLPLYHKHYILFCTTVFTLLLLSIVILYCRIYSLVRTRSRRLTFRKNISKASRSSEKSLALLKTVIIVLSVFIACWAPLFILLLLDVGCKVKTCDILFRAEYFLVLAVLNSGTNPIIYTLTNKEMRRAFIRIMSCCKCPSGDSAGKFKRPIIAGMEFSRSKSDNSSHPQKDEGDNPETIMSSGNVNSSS

`CC(C)Oc1ccc(-c2nc(-c3ccc4c(c3)CCCNC4CCC(N)=O)no2)cc1Cl` (centres unmarked) [Example 1, 3-[7-(5-{3-chloro-4-[(1-methylethyl)oxy]phenyl}-1,2,4-oxadiazol-3-yl)-2,3,4,5-tetrahydro-1H-2-benzazepin-1-yl]propanamide]: in data set [1], the EC50 is greater than 10 µM.
Take `CC(C)Oc1ccc(-c2nc(-c3cccc4c3OCCNC4CCCC(=O)O)no2)cc1C#N` (centres unmarked) [Example 10, 4-[9-(5-{3-cyano-4-[(1-methylethyl)oxy]phenyl}-1,2,4-oxadiazol-3-yl)-2,3,4,5-tetrahydro-1,4-benzoxazepin-5-yl]butanoic acid hydrochloride salt]: the EC50 in data set [2] is less than 0.1 µM; in data set [1], greater than 10 µM.
As to `CCCCCCCCc1ccc(CCC(N)(CO)CO)cc1` [FTY720], the “effect on circulating lymphocytes” value in data set [3] is on record as “reduce circulating lymphocytes”. Besides, the bradycardia on treatment result in data set [4] was “bradycardia in the first 24 hours of treatment”.
With `CC(C)Oc1ccc(-c2nc(-c3ccc4c(c3)CNC(CCC(=O)O)CO4)no2)cc1Cl` (centres unmarked) [Example 6, 3-[7-(5-{3-Chloro-4-[(1-methylethyl)oxy]phenyl}-1,2,4-oxadiazol-3-yl)-2,3,4,5-tetrahydro-1,4-benzoxazepin-3-yl]propanoic acid hydrochloride], the EC50 in data set [2] was less than 0.01 µM.
For `CC(C)Oc1ccc(-c2nc(-c3cccc4c3OCCNC4CCCC(=O)O)no2)cc1Cl` (centres unmarked) [Example 12, 4-[9-(5-{3-chloro-4-[(1-methylethyl)oxy]phenyl}-1,2,4-oxadiazol-3-yl)-2,3,4,5-tetrahydro-1,4-benzoxazepin-5-yl]butanoic acid hydrochloride], the values for the EC50 in data set [2] and in data set [1] were less than 0.01 µM and greater than 10 µM, respectively.
Regarding `CC(C)Oc1ccc(-c2nc(-c3ccc4c(c3)CCCNC4CCCO)no2)cc1Cl` (centres unmarked) [Example 3, 3-[7-(5-{3-Chloro-4-[(1-methylethyl)oxy]phenyl}-1,2,4-oxadiazol-3-yl)-2,3,4,5-tetrahydro-1H-2-benzazepin-1-yl]-1-propanol hydrochloride], in data set [1], the EC50 is greater than 10 µM.
In the case of `CC(C)Oc1ccc(-c2nc(-c3cccc4c3OCCNC4CCC(=O)O)no2)cc1Cl` (centres unmarked) [Example 13, 3-[9-(5-{3-Chloro-4-[(1-methylethyl)oxy]phenyl}-1,2,4-oxadiazol-3-yl)-2,3,4,5-tetrahydro-1,4-benzoxazepin-5-yl]propanoic acid, formic acid salt], the EC50 in data set [2] is less than 0.01 µM; in data set [1] it was greater than 10 µM.
For `CC(C)Oc1ccc(-c2nc(-c3ccc4c(c3)CNC(C(=O)O)CO4)no2)cc1Cl` (centres unmarked) [Example 5, 7-(5-{3-Chloro-4-[(1-methylethyl)oxy]phenyl}-1,2,4-oxadiazol-3-yl)-2,3,4,5-tetrahydro-1,4-benzoxazepine-3-carboxylic acid hydrochloride], the EC50 in data set [2] is less than 0.1 µM.
As for `CC(C)Oc1ccc(-c2nc(-c3ccc4c(c3)CCCNC4CCC(=O)O)no2)cc1Cl` (centres unmarked) [Example 2, 3-[7-(5-{3-Chloro-4-[(1-methylethyl)oxy]phenyl}-1,2,4-oxadiazol-3-yl)-2,3,4,5-tetrahydro-1H-2-benzazepin-1-yl]propanoic acid hydrochloride], the EC50 in data set [1] is greater than 10 µM.
Same read-out and setting: under `CC(C)Oc1ccc(-c2nc(-c3cccc4c3OCCNC4CC(=O)O)no2)cc1C#N` (centres unmarked) [Example 8, [9-(5-{3-cyano-4-[(1-methylethyl)oxy]phenyl}-1,2,4-oxadiazol-3-yl)-2,3,4,5-tetrahydro-1,4-benzoxazepin-5-yl]acetic acid] stands greater than 10 µM.
On to `CC(C)Oc1ncc(-c2nc(-c3cccc4c3OCCNC4CCCC(=O)O)no2)cc1Cl` (centres unmarked) [Example 11, 4-[9-(5-{5-chloro-6-[(1-methylethyl)oxy]-3-pyridinyl}-1,2,4-oxadiazol-3-yl)-2,3,4,5-tetrahydro-1,4-benzoxazepin-5-yl]butanoic acid hydrochloride], for which the EC50 in data set [2] is less than 0.1 µM.
Take `CC(C)Oc1ccc(-c2nc(-c3cccc4c3OCCNC4CC(=O)O)no2)cc1Cl` (centres unmarked) [Example 7, [9-(5-{3-Chloro-4-[(1-methylethyl)oxy]phenyl}-1,2,4-oxadiazol-3-yl)-2,3,4,5-tetrahydro-1,4-benzoxazepin-5-yl]acetic acid hydrochloride]: the EC50 is less than 0.1 µM in data set [2] and greater than 10 µM in data set [1].
On to `CC(C)Oc1ncc(-c2nc(-c3cccc4c3OCCNC4CC(=O)O)no2)cc1Cl` (centres unmarked) [Example 9, [9-(5-{5-Chloro-6-[(1-methylethyl)oxy]-3-pyridinyl}-1,2,4-oxadiazol-3-yl)-2,3,4,5-tetrahydro-1,4-benzoxazepin-5-yl]acetic acid], for which the EC50 in data set [2] is less than 0.1 µM; in data set [1], greater than 10 µM.
`CC(C)Oc1ccc(-c2nc(-c3cccc4c3OCCNC4CCC(=O)O)no2)cc1C#N` (centres unmarked) [Example 14, 3-[9-(5-{3-cyano-4-[(1-methylethyl)oxy]phenyl}-1,2,4-oxadiazol-3-yl)-2,3,4,5-tetrahydro-1,4-benzoxazepin-5-yl]propanoic acid, formic acid salt]: in data set [2], the EC50 is less than 0.01 µM.
